Measurements as given in US11130960B2, “Methods for conferring or enhancing herbicide resistance on plants and/or alga with protoporphyrinogen oxidase variants” (FARM HANNONG CO., LTD., priority 2014, dated 2021).

Key:
Test in all cases: Seed germination / growth on ½ MS medium containing herbicide
CyPPO8 transformants = type: in vivo, Arabidopsis thaliana; details: CyPPO8 and BAR gene-inserted; ½ MS medium with 70 nM Tiafenacil, 50 uM glufosinate, or both
Description: (§1) To examine tiafenacil resistance of T2 generation seeds which survived under treatment of 1 μM tiafenacil, among the CyPPO2 and CyPPO8 transformants, Arabidopsis thaliana seeds were sown in ½ MS medium (1.125 g/L of MS salt, 10 g/L of sucrose, 7 g/L of Agar) containing 70 nM tiafenacil. […] Therefore, survival under 70 nM tiafenacil means that a plant has resistance against tiafenacil.
(§2) In Arabidopsis thaliana transformant including CyPPO2 or CyPPO8 gene, which was obtained by transformation using the plant transformation vector prepared in Example 6, the PPO activity-inhibiting herbicide-resistant gene and glufosinate-resistant gene are expressed at the same time. Therefore, it was examined whether cross-treatment of Arabidopsis thaliana transformant with two herbicides, namely, PPO activity-inhibiting herbicide and glufosinate is effective for weed control. To this end, seeds of CyPPO2 and BAR gene-inserted Arabidopsis thaliana transformant, or CyPPO8 and BAR gene-inserted Arabidopsis thaliana transformant were sterilized and treated at low temperature of 4° C. for 2 days. The seeds were sown in a ½ MS medium (Duchefa), a ½MS medium containing 70 nM Tiafenacil, a ½MS medium containing 50 uM glufosinate, or a ½MS medium containing 70 nM Tiafenacil and 50 uM glufosinate, and grown at 23° C. under 16 hour-light/8 hour-dark conditions for 7-14 days. Arabidopsis thaliana on the herbicide media was CyPPO2 or CyPPO8-transformed seed and the wild-type Col0 as a control, respectively. The transformant and the control were cultured on herbicide media. After 2 weeks, they were examined.
(§3) In Example 9, it was confirmed that Arabidopsis thaliana transformant prepared in the present invention has resistance against the two PPO-based herbicides, Tiafenacil and Saflufenacil at the same time, and therefore, it was tested whether the cross-treatment of Arabidopsis thaliana transformant with Tiafenacil and Saflufenacil is effective for weed control. To this end, seeds of CyPPO2 or CyPPO8 gene-inserted Arabidopsis thaliana transformant were sterilized and treated at low temperature of 4° C. for 2 days. The seeds were sown in a ½ MS medium, a ½MS medium containing 70 nM Tiafenacil, a ½MS medium containing 70 nM Saflufenacil, or a ½MS medium containing 35 nM Tiafenacil and 35 nM Saflufenacil, and grown at 23° C. under 16 hour-light/8 hour-dark conditions for 7-14 days. Arabidopsis thaliana on the herbicide media was CyPPO2 or CyPPO8-transformed seed and the wild-type Col0 as a control, respectively. The transformant and the control were cultured on herbicide media. After 2 weeks, they were examined.

CyPPO2 transformants = type: in vivo, Arabidopsis thaliana; details: CyPPO2 and BAR gene-inserted; ½ MS medium with 70 nM Tiafenacil, 50 uM glufosinate, or both
Description: as §1, §2, §3

[1] = tested on: wild-type Arabidopsis thaliana (Col-0); type: in vivo; details: ½ MS medium with 70 nM Tiafenacil, 50 uM glufosinate, or 70 nM Tiafenacil and 50 uM glufosinate
Description: as §1, §2, §3

CP(=O)(O)CCC(N)C(=O)O (stereo not drawn) [glufosinate]
germination / growth on herbicide medium after 2 weeks (CyPPO8 transformants): normally grew | germination / growth on herbicide medium after 2 weeks (CyPPO2 transformants): normally grew | germination / growth on herbicide medium after 2 weeks [1]: not germinated
